Reference: patent publication US7189751B2, “Oxa(thia)zolidine compounds, process for preparation thereof and anti-inflammatory agents” (Nippon Soda Co., Ltd., priority 2001, dated 2007)

Tests used:
[1] = tested on: Mouse Delayed Contact Dermatitis Induced by Picryl Chloride; test: Mouse delayed contact dermatitis induced by picryl chloride; assay type: in vivo
Experimental: Pharmacological Test Example 3 Mouse Delayed Contact Dermatitis Induced by Picryl Chloride
This pharmacological test was carried out referring to the method of Asherson, G. L. & Ptak, W. (Immunology, 15: 405–416 (1968).) and the method of Jun Hiroi (Folia Pharmacology of Japan, 86: 233–239 (1985).). More specifically, hairs on the abdomen of an ICR-strain male mouse were removed using an electric clipper and an electric shaver. Then, 0.1 mL of 7% ether solution of picryl chloride (Tokyo Kasei Kogyo Co., Ltd., C 0307) was applied onto the abdomen for sensitization. On the sixth day after the sensitization, 20 μL/ear of 1% olive oil solution of picryl chloride was topically applied to the anterior and posterior surfaces of both ears of the mouse to induce contact dermatitis (first induction). Before and 24 hours after the induction, the thicknesses of the particular parts on the both ears were measured three times, respectively, using a digimatic micrometer (Mitsutoyo Co., Ltd.) to work out the average values. Ear edema of the both ears was respectively determined by subtracting the average thickness of the each ear before the induction from that on 24 hours after the induction, so that a grouping was carried out to separate the appropriate individuals. On the fourth day after the first induction, the hairs on the abdomen were removed again, and 0.1 mL of 7% ethanol solution of picryl chloride was applied thereto for additional sensitization. The contact dermatitis for evaluating activity was induced by re-applying 20 μL/ear of 1% olive oil solution of picryl chloride to the anterior and posterior surfaces of both ears (second induction) on the seventh day after the additional sensitization (on the […] after the first sensitization). The activity of each compound of the present invention was evaluated as the inhibition on the contact dermatitis as compared with that of the vehicle applied control. That is, the thicknesses of the particular portions of the both ears were measured respectively three times with a digimatic micrometer to work out the mean values before, 24 hours and 48 hours after the second induction. Ear swelling was determined by subtracting the ear thickness before the second induction from that on 24 hours and 48 hours after the second induction, respectively. Topical application activity was evaluated by applying 25 μL of the acetone solution of the compound of the present invention similarly to the anterior and posterior surfaces of the right ear one hour before and 16 hours after the second induction. As the positive control, 0.02 mg/20 μL of acetone solution of Dexamethasone (hereinafter referred to as DEX, Wako Pure Chemical Industries Ltd., 047-18863) was applied similarly as for the compound of the present invention. With respect to the inhibitory activity in topical application tests, the topical activity was determined by the inhibition of the applied right ear edema, and the translocation and distribution property was determined by the activity onto the swelling of non-treated left ear. Oral administration activity was evaluated by administrating 0.5% methyl cellulose suspension of the compound of the present invention forcibly and perorally to the mouse an hour before and 16 hours after the second induction. As the positive control, 20 mg/kg of Prednisolone (Sigma Chemical Co., P 6004) suspension was administrated similarly as for the compounds of the present invention. […] As the examples, the body weight changes in the mice for 48 hours after the second induction when they were administrated with the compounds shown in Table 5 are shown in Table 6.

[2] = tested on: acetic acid induced writhes; test: Acetic acid writhing; assay type: in vivo, mouse
Experimental: Pharmacological Test Example 4: Acetic Acid Wirthing
This test was carried out referring to the method of Inoue, K., Motonaga, A. & Nishimura, T (Arzneimittel Forshung/Drug Research, 41 (1): 235–239 (1991)). More specifically, 7.5 mL/kg of 0.9% acetic acid solution was injected intraperitoneally into an ICR-strain male mouse (5 to 7 weeks old), and the induced writhes (characteristic behaviors of convulsive contracting the abdomen, twisting the body and/or extending the legs) were observed. Number of writhes of each mouse was measured during 10 to 20 min. period after acetic acid administration. […] The analgesic activity of the compounds according to the present invention was evaluated on the basis of the degree of inhibiting the number writhes by the administration of the compounds. As the positive control, indomethacin or aspirin was administrated. The analgesic activity of the compounds according to the present invention measured in this test were exemplified in Table 7.

In the case of CCOC(=O)C(=C1N[C@@H](C)[C@H](c2ccc(Cl)cc2)S1)[N+](=O)[O-] (relative stereo) [Compound 2-29, Trans-5-(4-chlorophenyl)-4-methyl-2-(1-ethoxycarbonyl-1-nitromethylene)-thiazolidine], the “Change in body weight 48 hours after induction (Mean ± S.E.)” value ([1]; 1.5 mg/ear × 2, vehicle control −0.45 ± 0.20) is reported as -0.06 ± 0.15 g, the “Change in body weight 48 hours after induction (Mean ± S.E.) (%)” value ([1]; 1.5 mg/ear × 2, vehicle control −1.29 ± 0.59) is reported as −0.20 ± 0.48% and the “Ear swelling after 24 hours, Right (Applied) (Mean ± S.E., mm)” value ([1]; topical 1.5 mg/25 μL/ear × 2, vehicle control 0.299 ± 0.006) is reported as 0.261 ± 0.012 mm. For the same compound, the “Ear swelling after 24 hours, Left (Not applied) (Mean ± S.E., mm)” value ([1]; topical 1.5 mg/25 μL/ear × 2 on right ear, vehicle control 0.284 ± 0.008) was 0.243 ± 0.020 mm, the “Number of writhes (Mean ± S.E.)” value ([2]; i.p. 1 mg/kg, 30 min before, vehicle i.p. 25.2 ± 2.2) was 5.5 ± 1.9 and the “Number of writhes (Mean ± S.E.)” value ([2]; p.o. 10 mg/kg, 120 min before, vehicle p.o. 23.5 ± 3.1) was 1.5 ± 0.7.
